pIC50: −log10 of the molar value. Where two headings read alike, the source gives them in different places.
Assays:
CDK4/Cyclin D1 = CDK4/Cyclin D1 (Homo sapiens (Human), UniProt P11802); experiment: CDK4/CyclinD1 enzymatic activity assay (TR-FRET); type: biochemical; settings: CDK4/CyclinD1 1 nM, ATP 2 mM, read-out: CDK4_D1 IC50
Experimental: CDK4/CyclinD1 Enzymatic Activity Assay
(§1) The inhibitory activity of compounds was evaluated in vitro using TR-FRET assay with white 384-well low volume microplate (Greiner Bio-One). CDK4/Cyclin D1 catalyzed phosphorylation of peptide in the presence and absence of compounds was measured. IC50 determination. Recombinant protein complex CDK4/Cyclin D1, expressed from insect cell, was purchased from ProQinase. Testing compounds were dissolved in DMSO at 0.1 mM and tested in 9-dose IC50 mode. The reaction mixture was prepared by mixing CDK4/CyclinD1 (1 nM final), ULight-4E-BP1 (100 nM final, Perkinelmer, TRF0128-D), and ATP (2 mM final) in assay buffer (20 mM of HEPES pH 7.4, 1 mM of EGTA, 0.05% BSA, 0.005% Tween 20, and 1 mM TCEP). The compound of interest in DMSO was added to each well in 3-fold serial dilution by dispenser (TECAN D300E). After 20 minutes preincubation at room temperature, MgCl2 (10 mM final) was added to initiate the reaction. Following a 60 minutes incubation at 37° C., the reaction was stopped by addition of 2 μL of quenching buffer consisting of Lance detection buffer (Perkinelmer CR97-100C), 2 nM LANCE Ultra Europium-anti-P-4E-BP1 (Perkinelmer, TRF0216-D), 10 mM EDTA, and incubate at room temperature for additional 60 minutes in dark. The reaction signal was measured by Envision multimode plate reader (PerkinElmer, 2102-0010). IC50 values were determined by fitting the data to the standard 4 parameters with Hill Slope using GraphPad Prism software.

CDK6/Cyclin D1 = CDK6/Cyclin D1 (Homo sapiens (Human), UniProt Q00534); experiment: CDK6/CyclinD1 enzymatic activity assay (TR-FRET); type: biochemical; settings: CDK6/Cyclin D1 1 nM, ATP 250 μM, read-out: CDK6_D1 IC50
Sequence of CDK6/Cyclin D1 (Q00534 whole entry): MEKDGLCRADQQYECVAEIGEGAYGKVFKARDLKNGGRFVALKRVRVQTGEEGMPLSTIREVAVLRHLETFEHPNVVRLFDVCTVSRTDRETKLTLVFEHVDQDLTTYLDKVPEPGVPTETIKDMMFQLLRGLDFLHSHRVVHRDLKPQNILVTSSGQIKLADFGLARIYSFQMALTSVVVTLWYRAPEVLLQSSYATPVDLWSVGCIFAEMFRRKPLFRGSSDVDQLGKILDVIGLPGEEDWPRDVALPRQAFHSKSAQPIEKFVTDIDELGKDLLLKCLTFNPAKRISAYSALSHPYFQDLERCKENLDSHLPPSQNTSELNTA
Sequence of CDK6/Cyclin D1 (P24385 whole entry partner): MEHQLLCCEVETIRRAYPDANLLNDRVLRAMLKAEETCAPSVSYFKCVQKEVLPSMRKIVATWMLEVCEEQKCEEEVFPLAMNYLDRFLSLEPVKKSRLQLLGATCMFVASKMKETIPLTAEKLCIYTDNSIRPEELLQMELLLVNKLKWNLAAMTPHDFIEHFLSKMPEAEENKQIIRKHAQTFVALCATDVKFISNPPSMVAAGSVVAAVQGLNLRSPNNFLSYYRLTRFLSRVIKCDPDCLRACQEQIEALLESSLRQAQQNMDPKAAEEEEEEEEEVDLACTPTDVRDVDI
Experimental: CDK6/CyclinD1 Enzymatic Activity Assay
as §1, with “CDK6/Cyclin” for “CDK4/Cyclin”, “measured and used in” for “measured.”, “CDK6/Cyclin D1” for “CDK4/CyclinD1”, “(250 μM” for “(2 mM”, “temperature, 0.1 μL” for “temperature,”

[1] = system: MCF7 adenocarcinoma cell line; experiment: Cell proliferation studies in MCF7 cells (ATP-Lite); type: cell-based; settings: 10 days incubation, cell viability by ATP-Lite luminescence, read-out: PROLIFERATION_CTG_MCF7 IC50
Experimental: Cell Proliferation Studies in MCF7 Cells
Cell proliferation studies were conducted in MCF7 adenocarcinoma cell line. Cells were maintained in DMEM (Corning, Catalog #: 10-013-CV) supplemented with 10% v/v FBS (Gibco, Catalog #: 26140-079), 1% v/v Penicillin Streptomycin (Gibco, Catalog #15140-122) Cells were seeded in 384-well plates at a density of 100 or 200 cells/well. Compounds dissolved in DMSO were plated in quadruplicate using a digital dispenser (D300E, Tecan) and tested on a 9-point 3-fold serial dilution. Cells were incubated for 10 days in a 37° C. active humidified incubator at 5% CO2. A media exchange and second compound addition were performed on day 5. Cell viability was measured using the ATP-Lite 1-Step Luminescence reagent (Perkin Elmer, Catalog #: 6016731) as per manufacturer's instructions. Luminescence signal was measured with a multimode plate reader (Envision 2105, Perkin Elmer). Raw data files were imported to Dotmatics Screening Ultra for IC50 analysis. Luminescence values were normalized to both background and DMSO controls to obtain a percentage of viable cells relative to DMSO vehicle control.

Sequence of CDK4/Cyclin D1 (P11802 whole entry): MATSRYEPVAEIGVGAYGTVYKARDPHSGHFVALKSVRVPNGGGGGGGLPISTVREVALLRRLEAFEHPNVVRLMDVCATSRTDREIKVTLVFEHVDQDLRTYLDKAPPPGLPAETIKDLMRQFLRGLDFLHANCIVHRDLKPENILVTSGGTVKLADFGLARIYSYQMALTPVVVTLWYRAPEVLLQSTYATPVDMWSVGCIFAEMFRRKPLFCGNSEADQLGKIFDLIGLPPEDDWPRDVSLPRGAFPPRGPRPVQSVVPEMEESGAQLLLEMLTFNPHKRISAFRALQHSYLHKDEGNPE
Sequence of CDK4/Cyclin D1 (P24385 whole entry partner): as the sequence (P24385 whole entry partner) above

| pIC50 (CDK4/Cyclin D1) | pIC50 (CDK6/Cyclin D1) | pIC50 ([1]; Homo sapiens, 240 h) | pIC50 [1] | SMILES |
| --- | --- | --- | --- | --- |
| ≥ 7.70 | ≥ 7.70 | 6.70 to 7.70 |  | Cc1c(-c2nc(Nc3ccc(N4CCC5(CCN(C)C5)C4)cn3)ncc2F)sc2c1C(=O)N(C)CC21CC1 (stereo not drawn) [Example 37, 2′-(5-Fluoro-2-((5-(7-methyl-2,7-diazaspiro[4.4]nonan-2-yl)pyridin-2-yl)amino)pyrimidin-4-yl)-3′,5′-dimethyl-5′,6′-dihydro-4′H-spiro[cyclopropane-1,7′-thieno[3,2-c]pyridin]-4′-one] |
| ≥ 7.70 | ≥ 7.70 | ≥ 7.70 |  | CN1CCC(c2ccc(Nc3nc(-c4cc5c(s4)C4(CC4)CN(C)C5=O)ncc3C(F)(F)F)nc2)CC1 [Example 40, 5-Methyl-2-[4-[[5-(1-methylpiperidin-4-yl)pyridin-2-yl]amino]-5-(trifluoromethyl)pyrimidin-2-yl]spiro[6H-thieno[3,2-c]pyridine-7,1′-cyclopropane]-4-one] |
| ≥ 7.70 | ≥ 7.70 | 6.70 to 7.70 |  | Cc1cnc(Nc2ccc(N3CCC4(CC3)CN(C)C4)cn2)nc1-c1cc2c(s1)C1(CC1)CN(C)C2=O [Example 43, 5-methyl-2-[5-Methyl-2-[[5-(2-methyl-2,7-diazaspiro[3.5]nonan-7-yl)pyridin-2-yl]amino]pyrimidin-4-yl]spiro[6H-thieno[3,2-c]pyridine-7,1′-cyclopropane]-4-one] |
| ≥ 7.70 | ≥ 7.70 | ≥ 7.70 |  | CCN1CC2(C1)CN(c1ccc(Nc3ncc(Cl)c(-c4cc5c(s4)C4(CC4)CN(C)C5=O)n3)nc1)C2 [Example 45, 2-[5-Chloro-2-[[5-(6-ethyl-2,6-diazaspiro[3.3]heptan-2-yl)pyridin-2-yl]amino]pyrimidin-4-yl]-5-methylspiro[6H-thieno[3,2-c]pyridine-7,1′-cyclopropane]-4-one] |
| ≥ 7.70 | ≥ 7.70 | 6.70 to 7.70 |  | CCN1CC2(C1)CN(c1ccc(Nc3ncc(F)c(-c4sc5c(c4C)C(=O)N(C)CC54CCC4)n3)nc1)C2 [Example 52, 2′-(2-((5-(6-Ethyl-2,6-diazaspiro[3.3]heptan-2-yl)pyridin-2-yl)amino)-5-fluoropyrimidin-4-yl)-3′,5′-dimethyl-5′,6′-dihydro-4′H-spiro[cyclobutane-1,7′-thieno[3,2-c]pyridin]-4′-one] |
| ≥ 7.70 | 6.70 to 7.70 | 6.70 to 7.70 |  | CN1CC2(CCC2)c2sc(-c3nc(Nc4ccc(N5CCN6CCC5CC6)cn4)ncc3F)cc2C1=O [Example 53, 2′-(2-((5-(1,4-Diazabicyclo[3.2.2]nonan-4-yl)pyridin-2-yl)amino)-5-fluoropyrimidin-4-yl)-5′-methyl-5′,6′-dihydro-4′H-spiro[cyclobutane-1,7′-thieno[3,2-c]pyridin]-4′-one] |
| ≥ 7.70 | ≥ 7.70 | 6.70 to 7.70 |  | Cc1c(-c2nc(Nc3ccc(N4CC5(CCN(C)C5)C4)cn3)ncc2F)sc2c1C(=O)N(C)CC21CCC1 [Example 54, 2′-(5-Fluoro-2-((5-(6-methyl-2,6-diazaspiro[3.4]octan-2-yl)pyridin-2-yl)amino)pyrimidin-4-yl)-3′,5′-dimethyl-5′,6′-dihydro-4′H-spiro[cyclobutane-1,7′-thieno[3,2-c]pyridin]-4′-one] |
| ≥ 7.70 | ≥ 7.70 |  | 6.70 to 7.70 | Cc1c(-c2nc(Nc3ccc(N4C[C@H]5CN(C)C[C@H]5C4)cn3)ncc2F)sc2c1C(=O)N(C)CC21CCC1 [Example 57, 2′-(5-Fluoro-2-((5-((3aR,6aS)-5-methylhexahydropyrrolo[3,4-c]pyrrol-2(1H)-yl)pyridin-2-yl)amino)pyrimidin-4-yl)-3′,5′-dimethyl-5′6′-dihydro-4′H-spiro[cyclobutane-1,7′-thieno[3,2-c]pyridin]-4′-one] |
| ≥ 7.70 | ≥ 7.70 | 6.70 to 7.70 |  | Cc1c(-c2nc(Nc3ccc(C4CCN(C)CC4)cn3)ncc2Cl)sc2c1C(=O)N(C)CC21CCC1 [Example 60, 2-[5-Chloro-2-[[5-(1-methyl-piperidin-4-yl)pyridin-2-yl]amino]pyrimidin-4-yl]-3,5-dimethylspiro[6H-thieno[3,2-c]pyridine-7,1′-cyclobutane]-4-one] |
| ≥ 7.70 | ≥ 7.70 |  | ≥ 7.70 | CN1CC2(C1)CN(c1ccc(Nc3ncc(F)c(-c4cc5c(s4)C4(CCCC4)CN(C)C5=O)n3)nc1)C2 [Example 61, 2′-(5-Fluoro-2-((5-(6-(methyl-d3)-2,6-diazaspiro[3.3]heptan-2-yl)pyridin-2-yl)amino)pyrimidin-4-yl)-5,-(methyl-d3)-5′,6′-dihydro-4′H-spiro[cyclopentane-1,7′-thieno[3,2-c]pyridin]-4′-one] |
| ≥ 7.70 | 6.70 to 7.70 | 6.70 to 7.70 |  | CN1CC2(CCCC2)c2sc(-c3nc(Nc4ccc(N5CCOCC5)cn4)ncc3F)cc2C1=O [Example 62, 2′-(5-Fluoro-2-((5-morpholino-pyridin-2-yl)amino)pyrimidin-4-yl)-5′-methyl-5′,6′-dihydro-4′H-spiro[cyclopentane-1,7′-thieno[3,2-c]pyridin]-4′-one] |
| ≥ 7.70 | ≥ 7.70 | 6.70 to 7.70 |  | [2H]C([2H])([2H])N1C(=O)c2c(sc(-c3nc(Nc4ccc(C5CCN(C)CC5)cn4)ncc3F)c2C)C12CC2 [Example 70, 2′-[5-Fluoro-2-[[5-(1-methylpiperidin-4-yl)pyridin-2-yl]amino]pyrimidin-4-yl]-3′-methyl-5′-(trideuteriomethyl)spiro[cyclopropane-1,6′-thieno[2,3-c]pyrrole]-4′-one] |
| ≥ 7.70 | ≥ 7.70 | ≥ 7.70 |  | Cc1c(-c2nc(Nc3ccc(C4CCN(C)CC4)cn3)ncc2F)sc2c1C(=O)NC21CC1 [Example 73, 2-[5-Fluoro-2-[[5-(1-methylpiperidin-4-yl)pyridin-2-yl]amino]pyrimidin-4-yl]-3-methylspiro[5H-thieno[2,3-c]pyrrole-6,1′-cyclopropane]-4-one] |

| SMILES | pIC50 (CDK4/Cyclin D1) | pIC50 (CDK6/Cyclin D1) | pIC50 ([1]; Homo sapiens, 240 h) | pIC50 [1] |
| --- | --- | --- | --- | --- |
| CN1CC2(CCC2)c2sc(-c3nc(Nc4ccc(N5CC6CC(C5)N6C)cn4)ncc3F)cc2C1=O [Example 46, 2′-(5-Fluoro-2-((5-(6-methyl-3,6-diazabicyclo[3.1.1]heptan-3-yl)pyridin-2-yl)amino)pyrimidin-4-yl)-5′-methyl-5′,6′-dihydro-4′H-spiro[cyclobutane-1,7′-thieno[3,2-c]pyridin]-4′-one] | ≥ 7.70 | 6.70 to 7.70 | 6.70 to 7.70 |  |
| CN1CCC(c2ccc(Nc3nc(-c4cc5c(s4)C4(CCC4)CN(C)C5=O)ncc3C(F)(F)F)nc2)CC1 [Example 58] | ≥ 7.70 | ≥ 7.70 |  | ≥ 7.70 |

— US20250163074A1, “CDK Inhibitors And Their Use As Pharmaceuticals” (Prelude Therapeutics Incorporated, priority 2020, published 2025)
